Where “and” joins values, the source holds several entries; their conditions need not be identical. Equal entries are not always repeated.
Test system: brown planthoppers, Nilaparvata lugens
Test: Field efficacy on brown planthopper in transplanted rice (small-plot trials A-D)
Type: in vivo
Settings: Sulfoxaflor 50 g/ha, Chlorpyrifos 500 g/ha, mixture 50 + 500 g/ha; for % Control: Trial A
Experimental: Applications were made to transplanted rice, Oryza sativa, using standard small-plot efficacy methods. Chemicals were diluted in water and all treatments were applied using a backpack sprayer calibrated to deliver 500 liters of spray per hectare. Experimental plots measured 5 by 10 meters and each treatment was replicated three times in each trial. At the specified intervals after treatment, brown planthoppers, Nilaparvata lugens, were counted in 10 randomly selected hills per plot. Data were transformed to percent control relative to the untreated plots, then subjected to analysis of variance, and means were separated using Tukey's HSD (p=0.1). Expected control was calculated using the method of Colby and compared to observed control. See the Table Section for the results of the Field Trials.

Row | Compound | % Control (10 DAT) | % Control at DAT (Trial B, 10 DAT) | % Control (1 DAT, relative to untreated plots) | % Control (3 DAT) | % Control (7 DAT) | % Control (15 DAT) | % Control at DAT (Trial B, 1 DAT) | % Control at DAT (Trial B, 3 DAT) | % Control at DAT (Trial B, 7 DAT) | % Control at DAT (Trial B, 15 DAT) | % Control at DAT (Trial C, 1 DAT) | % Control at DAT (Trial C, 3 DAT) | % Control at DAT (Trial C, 7 DAT) | % Control at DAT (Trial C, 10 DAT) | % Control at DAT (Trial C, 15 DAT) | % Control at DAT (Trial D, 1 DAT) | % Control at DAT (Trial D, 7 DAT) | % Control at DAT (Trial D, 10 DAT) | % Control at DAT (Trial D, 15 DAT)
1 | CC(c1ccc(C(F)(F)F)nc1)S(C)(=O)=NC#N (stereo not drawn) [Sulfoxaflor] | 6.8% | 48.2% | – | – | – | – | – | – | – | – | – | – | – | – | – | – | – | – | –
2 | CCOP(=S)(OCC)Oc1nc(Cl)c(Cl)cc1Cl [Chlorpyrifos] | 7.8 b % and 7.8% | 39.8 b % and 39.8% | 13.7 bc % and 13.7% | 37.5 b % and 37.5% | 32.4 b % and 32.4% | 21.0 b % and 21% | 45.2 ab % and 45.2% | 64.8 b % and 64.8% | 54.0 b % and 54% | 57.8 b % and 57.8% | 53.4 ab % and 53.4% | 67.0 b % and 67% | 59.7 b % and 59.7% | 10.5 b % and 10.5% | 37.9 b % and 37.9% | 59.6 c % and 59.6% | 53.8 c % and 53.8% | 18.2 c % and 18.2% | 27.0 c % and 27%

From patent US20120283100A1, “CONTROLLING PLANTHOPPERS” (priority 2011, published 2012)
